Patent US5317014A, “Peptides and pseudopeptides derived from tachykinin” (priority 1991, dated 1994)
Where a name gives a salt, the structure may show the parent alone.

What was measured:
NK1 receptor = assay type: cell-based, rabbit; conditions: for pA2 NK1: antagonistic power, rabbit vena cava
Procedure: (§1) In order to evaluate the neurokinin antagonistic potential of the compounds of the invention, three smooth muscle preparations were used. Each of these preparations, described as having a good specificity for one type of receptor for neurokinins, was carried out conforming to the following techniques described in the literature:
rabbit vena cava for the study of the NK1 receptor according to D. REGOLI et al. (J. Cardiovasc. Pharmacol., in press);
(§2) The antagonistic power of the compounds of the invention is expressed in the form of pA2 as defined by O. ARUNLAKSHANA and H. O. SCHILD (Brit. J. Pharmacol., 14, 48-58, 1959).

NK2 receptor = biological target: T1, NK2 receptor (Oryctolagus cuniculus, UniProt P79218); experiment: Bio assay on isolated smooth muscle: rabbit pulmonary artery without endothelium; assay type: cell-based; conditions: antagonistic power, read-out: pA2 NK2 (converted)
T1 construct: three smooth muscle preparations were used; from tissue; host or cells: rabbit pulmonary artery without endothelium (isolated smooth muscle)
T1 sequence (P79218 1-384): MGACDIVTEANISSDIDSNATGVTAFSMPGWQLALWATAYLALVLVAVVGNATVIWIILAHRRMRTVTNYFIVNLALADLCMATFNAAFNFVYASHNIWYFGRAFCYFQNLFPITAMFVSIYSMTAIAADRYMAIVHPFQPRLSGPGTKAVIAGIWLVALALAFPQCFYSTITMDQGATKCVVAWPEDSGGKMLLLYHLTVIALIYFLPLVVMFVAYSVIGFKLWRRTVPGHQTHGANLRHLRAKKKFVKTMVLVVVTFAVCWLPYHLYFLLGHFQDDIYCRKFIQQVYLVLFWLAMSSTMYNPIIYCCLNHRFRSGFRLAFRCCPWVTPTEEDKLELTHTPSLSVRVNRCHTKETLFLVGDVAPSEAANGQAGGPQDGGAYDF
Procedure: as §1
rabbit pulmonary artery without endothelium for the study of the NK2 receptor according to D. REGOLI et al. (European J. Pharmacol. 125, 37-44, 1985);
as §2

NK3 receptor = biological target: T2, NK3 receptor (Rattus norvegicus, UniProt P16177); experiment: Bio assay on isolated smooth muscle: rat portal vein; assay type: cell-based; conditions: antagonistic power, read-out: pA2 NK3 (converted)
T2 construct: three smooth muscle preparations were used; from tissue; host or cells: rat portal vein (isolated smooth muscle)
T2 sequence (P16177 1-452): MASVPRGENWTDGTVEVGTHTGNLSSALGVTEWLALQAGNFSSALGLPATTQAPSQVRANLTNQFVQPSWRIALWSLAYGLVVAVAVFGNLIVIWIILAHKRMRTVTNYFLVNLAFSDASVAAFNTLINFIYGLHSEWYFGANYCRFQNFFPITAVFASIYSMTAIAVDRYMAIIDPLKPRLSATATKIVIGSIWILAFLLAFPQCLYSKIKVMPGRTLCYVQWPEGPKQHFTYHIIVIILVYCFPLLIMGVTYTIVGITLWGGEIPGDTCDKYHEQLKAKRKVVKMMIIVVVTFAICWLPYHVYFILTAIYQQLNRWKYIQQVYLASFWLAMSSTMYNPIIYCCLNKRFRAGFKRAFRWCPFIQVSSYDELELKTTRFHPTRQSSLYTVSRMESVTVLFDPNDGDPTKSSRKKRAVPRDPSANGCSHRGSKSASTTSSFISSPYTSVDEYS
Procedure: as §1
rat portal vein for the study of the NK3 receptor according to D. REGOLI et al. (European J. Pharmacol. 134, 321-326, 1986).
as §2

mouse = experiment: Eddy test in the mouse (thermal hyperalgesia, hot plate 55° C.); assay type: in vivo; conditions: dose increasing the reaction time by 50%; i.v. 5 minutes before heating plate; CD1 male mice
Procedure: This test consists in measuring the reaction time to heat determined by licking of the forepaws in a mouse (CD1 male, Ch. River, 25-30 g) placed on a metal plate heated to 55° C.
The animals were treated intravenously with the compounds of the invention 5 minutes before passing onto the heating plate.
The mean of the reaction times obtained for each batch treated (12 mice per batch) was compared with the mean of the corresponding control batch.

Compound	pA2 NK1 (NK1 receptor)	Kb (NK2 receptor)	Kb (NK3 receptor)	Eddy test in the mouse ED50 (mouse)	antagonistic activity with respect to NK1 receptors, compared with NK2 and NK3 (in words) (NK1 receptor; isolated smooth muscle preparations)
CN(Cc1ccccc1)C(=O)[C@H](Cc1ccccc1)NC(=O)[C@@H](Cc1cn(C=O)c2ccccc12)NC(=O)C[C@H]1NC(=O)[C@@H]2Cc3ccccc3CN2C1=O [Example 6, Cyclo(Tic--asp)--trp(CHO)--Phe--N(CH3)CH2 C6 H5]	6.87	> 6.76 µM	13.5 µM		
CN(Cc1ccccc1)C(=O)[C@H](Cc1ccccc1)NC(=O)[C@@H](Cc1cn(C(=O)CCCCCCN)c2ccccc12)NC(=O)C[C@@H]1NC(=O)[C@@H]2C3CCC(CC3)N2C1=O [Example 38, Cyclo(Abo--Asp)--trp(CO(CH2)6 NH2, HCl)--Phe--N(CH3)CH2 C6 H5]	6.70				
CN(Cc1ccccc1)C(=O)[C@H](Cc1ccccc1)NC(=O)[C@@H]1C2CCC(CC2)N1C(=O)c1c[nH]c2ccccc12 [Example 31, (indol-3-yl) carbonyl--Abo--Phe--N(CH3)CH2 C6 H5]	7.34	13.8 µM	9.12 µM		
CN(Cc1ccccc1)C(=O)[C@H](Cc1ccccc1)NC(=O)[C@@H](Cc1c[nH]c2ccccc12)NC(=O)C[C@@H]1NC(=O)[C@@H]2C3CCC(CC3)N2C1=O [Example 9, Cyclo(Abo--Asp)--trp--Phe--N(CH3)CH2 C6 H5]		1 µM			
CN(Cc1ccccc1)C(=O)[C@H](Cc1ccccc1)NC(=O)[C@@H](Cc1cn(C=O)c2ccccc12)NC(=O)C[C@@H]1NC(=O)[C@@H]2C3CCC(CC3)N2C1=O [Example 1, Cyclo(Abo--Asp)--trp(CHO)--Phe--N(CH3)CH2 C6 H5]		13.8 µM	13.8 µM		
CN1CC[C@]23c4c5ccc(O)c4O[C@H]2[C@@H](O)C=C[C@H]3[C@H]1C5 [morphine]				0.5 mg/kg i.v.	
Cyclo(Tic--asp)--.PSI.(CH2 S)--Phe--N(CH3)CH2 C6 H5 [Example 24]					more particularly the case
CN(Cc1ccccc1)C(=O)[C@H](Cc1ccccc1)NC(=O)[C@@H](Cc1cn(C=O)c2ccccc12)NC(=O)C[C@H]1NC(=O)[C@H]2C3CCC(CC3)N2C1=O [Example 5, Cyclo(abo--asp)--trp(CHO)--Phe--N(CH3)CH2 C6 H5]		2 µM	13.8 µM		
CN(Cc1ccccc1)C(=O)[C@H](Cc1ccccc1)NC(=O)[C@@H](Cc1cn(C=O)c2ccccc12)NC(=O)C[C@@H]1NC(=O)[C@H](Cc2ccccc2)N(C)C1=O [Example 7, Cyclo(MePhe--Asp)--trp(CHO)--Phe--N(CH3)CH2 C6 H5]	6.87	13.5 µM	13.5 µM		
CN(Cc1ccccc1)C(=O)[C@H](Cc1ccccc1)NC(=O)C[C@@H]1NC(=O)[C@@H]2Cc3ccccc3CN2C1=O [Example 16, Cyclo(Tic--Asp)--Phe--N(CH3)CH2 C6 H5]	6.02	19.1 µM	19.1 µM		
